Results reported in EP2818472A1, “Imidazo[4,5-c]pyridine and pyrrolo[3,2-c]pyridine compounds as G-protein-coupled receptor kinase 5 (GRK5) modulators” (Max-Planck-Gesellschaft zur Förderung der Wissenschaften …, priority 2013, dated 2014).

These compounds were tested on beta-TC6 cells (assay: Insulin HTRF assay (relative activity Ar) in beta-TC6 cells). Details: Mus musculus, Beta-TC6, 4 h, insulin HTRF, supernatant of beta-TC6 cells, incubation with test compound at 37°C for 2, 3, 4h; read-out: Ar (relative activity).
Type: cell-based, mouse
Source text: For further screening of compounds derived from compounds described above for their ability to regulate insulin release an insulin HTRF® (Homogeneous Time-Resolved Fluorescence; Cisbio International, France) was used. This assay is based on two antibodies against insulin binding to different epitopes of insulin. One of these antibodies is coupled to Europium (Ab-Eu-Cryptate) and the other one to the fluorophore XL665 (Ab-XL665). If the insulin is secreted into the supernatant of cell culture, both antibodies can bind to insulin and come therefore into close proximity, which allows upon excitation that energy transfer between (FRET) the long-life fluorescent donor Europium (cryptate) and the acceptors XL665. FRET increases proportionally with insulin concentration.
The automated assay protocol is as follows: • On day 1, 15k beta-TC6 cells per well were seeded for 24 or 48 h in 50 µL complete medium. On day 2 or respective on day 3, the medium is removed and cells are washed with 60 µL 1xPBS and 20 µL induction buffer is added using BioTek washer. Subsequently, 10 µL Sunitininb (5 -µM f.c.) or the test compound in induction buffer; 0.5% f.c. DMSO (CyBi-well) is transferred to the cells. The cells are then incubated at 37°C for 2, 3, 4h.
First 10 µL supernatant is transferred from the cell plates in HTRF plates (CyBi-well). 10 µL of 0, 1, 2, and 4 ng/ml insulin standard controls in assay medium is used as a control. To each well 10 µL of combined 1:25 Ab-XL665 (Acc) and 1:20 Ab-Eu-Cryptate (WellMate) are added and incubated for 120 min at RT in the dark. Finally HTRF is measured on ViewLux ultra high throughput microplate imager (PerkinElmer).
The evaluation software DataFactoty derives relative activities Ar according to the following equation: Ar = (V-R(0%control))/(R(100%control) -R0%control)) × 100 [formula]
The activity of the compounds was classified according to their Ar (relative activity) into the following ranges: […]

`Cn1c(Nc2ccccc2)nc2cnc(Nc3ccc(S(C)(=O)=O)cc3)cc21` [Compound 639, 1-methyl-N6-(4-methylsulfonylphenyl)-N2-phenyl-imidazo[4,5-c]pyridine-2,6-diamine] and `CC(=O)Nc1ccc(Nc2cc3c(cn2)nc(Cc2ccccc2)n3C)cc1` [Compound 700, N-[4-[(2-benzyl-1-methyl-imidazo[4,5-c]pyridin-6-yl)amino]phenyl]acetamide] fall in the same range of Emax: 50 to 100% for the first, 50 to 100% for the second.

`COc1cccc(-c2nc3c(NC4CCC(N)CC4)nccc3[nH]2)c1F` (stereo not shown) [Compound 476, N4-[2-(2-fluoro-3-methoxy-phenyl)-1H-imidazo[4,5-c]pyridin-4-yl]cyclohexane-1,4-diamine] and `COc1cc(CNc2nccc3[nH]c(-c4ccccc4Cl)nc23)cc(OC)c1OC` [Compound 460, 2-(2-chlorophenyl)-N-[(3,4,5-trimethoxyphenyl)methyl]-1H-imidazo[4,5-c]pyridin-4-amine] fall in the same range of Emax: 0 to 30% for the first, 0 to 30% for the second.

`CN(C)C(=O)c1ccc(Nc2cc3c(cn2)cc(-c2cccnc2)n3C)cc1` [Compound 95, N,N-dimethyl-4-[[1-methyl-2-(3-pyridyl)pyrrolo[3,2-c]pyridin-6-yl]amino]benzamide] and `COc1ccc(Nc2cc3c(cn2)cc(-c2cccnc2)n3C)cc1` [Compound 91, N-(4-methoxyphenyl)-1-methyl-2-(3-pyridyl)pyrrolo[3,2-c]pyridin-6-amine] fall in the same range of Emax: 50 to 100% for the first, 50 to 100% for the second.

Compared with `COc1cccc(-c2nc3c(NCCc4ccccn4)nccc3[nH]2)c1` [Compound 371, 2-(3-methoxyphenyl)-N-[2-(2-pyridyl)ethyl]-1H-imidazo[4,5-c]pyridin-4-amine], `COc1ccc(Nc2nccc3[nH]c(-c4cccnc4)cc23)cn1` [Compound 233, N-(6-methoxy-3-pyridyl)-2-(3-pyridyl)-1H-pyrrolo[3,2-c]pyridin-4-amine] is higher in Emax: 30 to 50% for the first, 50 to 100% for the second.

`N#Cc1ccc(Nc2cc3[nH]c(-c4ccccn4)cc3cn2)cc1` [Compound 68, 4-[[2-(2-pyridyl)-1H-pyrrolo[3,2-c]pyridin-6-yl]amino]benzonitrile] and `COc1ccc(Nc2cc3[nH]c(-c4cccc(N)c4)cc3cn2)cn1` [Compound 1, 2-(3-aminophenyl)-N-(6-methoxy-3-pyridyl)-1H-pyrrolo[3,2-c]pyridin-6-amine] fall in the same range of Emax: 50 to 100% for the first, 50 to 100% for the second.

`Cn1cc(-c2cc3cnc(Nc4cccnc4)cc3n2C)cn1` [Compound 131, 1-methyl-2-(1-methylpyrazol-4-yl)-N-(3-pyridyl)pyrrolo[3,2-c]pyridin-6-amine] and `COc1ccc(Nc2cc3[nH]c(-c4cncn4C)cc3cn2)cc1OC` [Compound 102, N-(3,4-dimethoxyphenyl)-2-(3-methylimidazol-4-yl)-1H-pyrrolo[3,2-c]pyridin-6-amine] cannot be ordered by Emax: greater than 100% for the first, greater than 100% for the second.

Compared with `COc1ccc(CNc2nc3cnc(Nc4ccc(OC)c(OC)c4)cc3n2C)cc1OC` [Compound 603, N6-(3,4-dimethoxyphenyl)-N2-[(3,4-dimethoxyphenyl)methyl]-1-methyl-imidazo[4,5-c]pyridine-2,6-diamine], `COCCNc1nc2cnc(Nc3cc(OC)c(OC)c(OC)c3)cc2n1C` [Compound 645, N2-(2-methoxyethyl)-1-methyl-N6-(3,4,5-trimethoxyphenyl)imidazo[4,5-c]pyridine-2,6-diamine] is lower in Emax: 50 to 100% for the first, 30 to 50% for the second.

`CNc1nc2cnc(Nc3ccc(OC)cc3OC)cc2n1-c1cccc(C(F)(F)F)c1` [Compound 543, N6-(2,4-dimethoxyphenyl)-N2-methyl-1-[3-(trifluoromethyl)phenyl]imidazo[4,5-c]pyridine-2,6-diamine] and `CNc1nc2cnc(Nc3ccc(OC)c(OC)c3)cc2n1-c1cccc(C(F)(F)F)c1` [Compound 545, N6-(3,4-dimethoxyphenyl)-N2-methyl-1-[3-(trifluoromethyl)phenyl]imidazo[4,5-c]pyridine-2,6-diamine] fall in the same range of Emax: 30 to 50% for the first, 30 to 50% for the second.

`COc1ccc(Cn2cnc3cnc(Nc4ccc(NC(C)=O)cc4)cc32)cc1OC` [Compound 730, N-[4-[[1-[(3,4-dimethoxyphenyl)methyl]imidazo[4,5-c]pyridin-6-yl]amino]phenyl]acetamide] and `COc1ccccc1-c1cc2c(Nc3ccc(NC(C)=O)cc3)nccc2n1C` [Compound 301, N-[4-[[2-(2-methoxyphenyl)-1-methyl-pyrrolo[3,2-c]pyridin-4-yl]amino]phenyl]acetamide] fall in the same range of Emax: 50 to 100% for the first, 50 to 100% for the second.

Compared with `CN(C)C(=O)c1ccc(-c2cc3cnc(Nc4cccc(Oc5ccccc5)c4)cc3[nH]2)cc1` [Compound 35, N,N-dimethyl-4-[6-(3-phenoxyanilino)-1H-pyrrolo[3,2-c]pyridin-2-yl]benzamide], `CN(C)C(=O)c1ccc(-c2cc3cnc(Nc4ccncn4)cc3n2Cc2ccccc2)cc1` [Compound 58, 4-[1-benzyl-6-(pyrimidin-4-ylamino)pyrrolo[3,2-c]pyridin-2-yl]-N,N-dimethyl-benzamide] is higher in Emax: 0 to 30% for the first, 30 to 50% for the second.

First: COc1ncccc1-c1cc2c(cn1)nc(NCC1CCCO1)n2C (stereo not shown) [Compound 644, 6-(2-methoxy-3-pyridyl)-1-methyl-N-(tetrahydrofuran-2-ylmethyl)imidazo[4,5-c]pyridin-2-amine]
Second: COCCNc1nc2cnc(-c3ccc(OC)cc3C)cc2n1C [Compound 859, N-(2-methoxyethyl)-6-(4-methoxy-2-methyl-phenyl)-1-methyl-imidazo[4,5-c]pyridin-2-amine]
The Emax of the first is higher: 50 to 100% for the first, 30 to 50% for the second.

First: c1csc(-c2nc3ccncc3[nH]2)c1 [Compound 743, 2-(2-thienyl)-3H-imidazo[4,5-c]pyridine]
Second: CC(C)[C@H](CO)Nc1nccc2[nH]c(-c3ccncc3)nc12 [Compound 429, (2R)-3-methyl-2-[[2-(4-pyridyl)-1H-imidazo[4,5-c]pyridin-4-yl]amino]butan-1-ol]
The Emax of the first is higher: 30 to 50% for the first, 0 to 30% for the second.

`Cn1c(NCc2ccccc2F)nc2cnc(-c3ccc(F)cc3)cc21` [Compound 657, 6-(4-fluorophenyl)-N-[(2-fluorophenyl)methyl]-1-methyl-imidazo[4,5-c]pyridin-2-amine] and `Cc1ccc(-c2nc3c(Nc4cccc(NS(C)(=O)=O)c4)nccc3[nH]2)cc1` [Compound 384, N-[3-[[2-(p-tolyl)-1H-imidazo[4,5-c]pyridin-4-yl]amino]phenyl]methanesulfonamide] fall in the same range of Emax: 30 to 50% for the first, 30 to 50% for the second.

First: COc1ccc(-c2nc3c(N(C)c4ccccc4)nccc3[nH]2)cc1OC [Compound 349, 2-(3,4-dimethoxyphenyl)-N-methyl-N-phenyl-1H-imidazo[4,5-c]pyridin-4-amine]
Second: COc1ccc(-c2nc3c(Nc4ccc(OC)c(O)c4)nccc3[nH]2)cc1 [Compound 398, 2-methoxy-5-[[2-(4-methoxyphenyl)-1H-imidazo[4,5-c]pyridin-4-yl]amino]phenol]
The Emax of the first is lower: 30 to 50% for the first, greater than 100% for the second.

`c1ccc(Cn2cnc3c(NC4CCCCC4)nccc32)cc1` [Compound 449, 1-benzyl-N-cyclohexyl-imidazo[4,5-c]pyridin-4-amine] and `Cn1c(-c2ccsc2)cc2c(Nc3cccc(NS(C)(=O)=O)c3)nccc21` [Compound 286, N-[3-[[1-methyl-2-(3-thienyl)pyrrolo[3,2-c]pyridin-4-yl]amino]phenyl]methanesulfonamide] fall in the same range of Emax: 50 to 100% for the first, 50 to 100% for the second.

`Fc1cccc(Nc2cc3[nH]c(-c4cn[nH]c4)cc3cn2)c1` [Compound 119, N-(3-fluorophenyl)-2-(1H-pyrazol-4-yl)-1H-pyrrolo[3,2-c]pyridin-6-amine] showed an Emax of 50 to 100%.
